Measured values as given in PubChem BioAssay (NCI).
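These data come from cells grown in 96-well plates and exposed to compound for 48 hours at five concentrations. Abbreviation: GI50, concentration required for 50% inhibition of growth. The concentration for full growth arrest is given as TGI.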

Legend:
Experiment in all cases: NCI tumour cell line growth inhibition, 48 h
ACHN renal = system: ACHN renal
RPMI-8226 leukemia = system: RPMI-8226 leukemia
HOP-92 NSCLC = system: HOP-92 NSCLC
TK-10 renal = system: TK-10 renal
HS 578T breast = system: HS 578T breast
HOP-62 NSCLC = system: HOP-62 NSCLC
OVCAR-4 ovarian = system: OVCAR-4 ovarian
HT29 colon = system: HT29 colon
HCT-116 colon = system: HCT-116 colon
T-47D breast = system: T-47D breast
MDA-MB-435 = system: MDA-MB-435
HCT-15 colon = system: HCT-15 colon
OVCAR-5 ovarian = system: OVCAR-5 ovarian
MDA-MB-231 breast = system: MDA-MB-231 breast
SR leukemia = system: SR leukemia
HL-60(TB) leukemia = system: HL-60(TB) leukemia
SF-295 CNS = system: SF-295 CNS
IGROV1 ovarian = system: IGROV1 ovarian
CCRF-CEM leukemia = system: CCRF-CEM leukemia
A549 NSCLC = system: A549 NSCLC
NCI-H226 lung = system: NCI-H226 lung
SK-MEL-2 melanoma = system: SK-MEL-2 melanoma
SK-MEL-28 melanoma = system: SK-MEL-28 melanoma
PC-3 prostate = system: PC-3 prostate
NCI-H522 lung = system: NCI-H522 lung
UO-31 renal = system: UO-31 renal
COLO 205 colon = system: COLO 205 colon
LOX IMVI melanoma = system: LOX IMVI melanoma
BT-549 breast = system: BT-549 breast
HCC-2998 colon = system: HCC-2998 colon
RXF 393 renal = system: RXF 393 renal
SNB-75 CNS = system: SNB-75 CNS
KM12 colon = system: KM12 colon
NCI-H460 lung = system: NCI-H460 lung
UACC-62 melanoma = system: UACC-62 melanoma
K-562 leukemia = system: K-562 leukemia
MALME-3M melanoma = system: MALME-3M melanoma
OVCAR-8 ovarian = system: OVCAR-8 ovarian
SF-268 CNS = system: SF-268 CNS
SK-OV-3 ovarian = system: SK-OV-3 ovarian
U251 CNS = system: U251 CNS
EKVX NSCLC = system: EKVX NSCLC
MOLT-4 leukemia = system: MOLT-4 leukemia
DU-145 prostate = system: DU-145 prostate
786-0 renal = system: 786-0 renal
NCI-H23 lung = system: NCI-H23 lung
NCI/ADR-RES ovarian = system: NCI/ADR-RES ovarian
SK-MEL-5 melanoma = system: SK-MEL-5 melanoma
M14 melanoma = system: M14 melanoma
SN12C renal = system: SN12C renal
SW-620 colon = system: SW-620 colon
SNB-19 CNS = system: SNB-19 CNS

With ClC(Cl)c1nc(-c2ccco2)n2nc(-c3ccccc3)cc2n1 the GI50 (ACHN renal) was 0.365 µM, the TGI (ACHN renal) was 2.03 µM and the GI50 (RPMI-8226 leukemia) was 0.54 µM. It also gave a TGI (RPMI-8226 leukemia) of over 22.6 µM, a GI50 (HOP-92 NSCLC) of 0.535 µM and a TGI (HOP-92 NSCLC) of 3.64 µM. It also gave a GI50 (TK-10 renal) of 4.96 µM, a TGI (TK-10 renal) of over 100 µM and a GI50 (HS 578T breast) of 2.17 µM. The TGI (HS 578T breast) was 7.46 µM, the GI50 (HOP-62 NSCLC) was 0.679 µM and the TGI (HOP-62 NSCLC) was 4.5 µM. For the same molecule, the GI50 (OVCAR-4 ovarian) was 5.45 µM, the TGI (OVCAR-4 ovarian) was over 100 µM and the GI50 (HT29 colon) was 0.338 µM. For the same molecule, the TGI (HT29 colon) was 2.16 µM, the GI50 (HCT-116 colon) was 0.639 µM and the TGI (HCT-116 colon) was over 39.3 µM. For the same molecule, the GI50 (T-47D breast) was 1.47 µM, the TGI (T-47D breast) was over 100 µM and the GI50 (MDA-MB-435) was 2.64 µM. For the same molecule, the TGI (MDA-MB-435) was over 100 µM, the GI50 (HCT-15 colon) was 0.617 µM and the TGI (HCT-15 colon) was over 100 µM. For the same molecule, the GI50 (OVCAR-5 ovarian) was 2.02 µM, the TGI (OVCAR-5 ovarian) was over 100 µM and the GI50 (MDA-MB-231 breast) was 0.791 µM. It also gave a TGI (MDA-MB-231 breast) of 5.02 µM, a GI50 (SR leukemia) of over 60.2 µM and a TGI (SR leukemia) of over 100 µM. It also gave a GI50 (HL-60(TB) leukemia) of 0.304 µM, a TGI (HL-60(TB) leukemia) of 1.69 µM and a GI50 (SF-295 CNS) of 1.66 µM. For the same molecule, the TGI (SF-295 CNS) was 6.13 µM, the GI50 (IGROV1 ovarian) was over 63.1 µM and the TGI (IGROV1 ovarian) was over 100 µM. The GI50 (CCRF-CEM leukemia) was over 100 µM, the TGI (CCRF-CEM leukemia) was over 100 µM and the GI50 (A549 NSCLC) was 1.56 µM. The TGI (A549 NSCLC) was 6.16 µM, the GI50 (NCI-H226 lung) was over 100 µM and the TGI (NCI-H226 lung) was over 100 µM. It also gave a GI50 (SK-MEL-2 melanoma) of over 100 µM, a TGI (SK-MEL-2 melanoma) of over 100 µM and a GI50 (SK-MEL-28 melanoma) of 3.76 µM. For the same molecule, the TGI (SK-MEL-28 melanoma) was over 100 µM, the GI50 (PC-3 prostate) was 1.67 µM and the TGI (PC-3 prostate) was 16.2 µM. For the same molecule, the GI50 (NCI-H522 lung) was over 100 µM, the TGI (NCI-H522 lung) was over 100 µM and the GI50 (UO-31 renal) was 1.61 µM. It also gave a TGI (UO-31 renal) of over 23.9 µM, a GI50 (COLO 205 colon) of 1.15 µM and a TGI (COLO 205 colon) of 3.58 µM. The GI50 (LOX IMVI melanoma) was over 100 µM, the TGI (LOX IMVI melanoma) was over 100 µM and the GI50 (BT-549 breast) was over 100 µM. For the same molecule, the TGI (BT-549 breast) was over 100 µM, the GI50 (HCC-2998 colon) was 0.553 µM and the TGI (HCC-2998 colon) was 1.85 µM. The GI50 (RXF 393 renal) was 0.528 µM, the TGI (RXF 393 renal) was 76.4 µM and the GI50 (SNB-75 CNS) was 0.219 µM. For the same molecule, the TGI (SNB-75 CNS) was 3.07 µM, the GI50 (KM12 colon) was 0.352 µM and the TGI (KM12 colon) was 1.71 µM. The GI50 (NCI-H460 lung) was 0.265 µM, the TGI (NCI-H460 lung) was 0.844 µM and the GI50 (UACC-62 melanoma) was over 100 µM. The TGI (UACC-62 melanoma) was over 100 µM, the GI50 (K-562 leukemia) was over 39.1 µM and the TGI (K-562 leukemia) was over 100 µM. It also gave a GI50 (MALME-3M melanoma) of over 100 µM, a TGI (MALME-3M melanoma) of over 100 µM and a GI50 (OVCAR-8 ovarian) of 1.62 µM. The TGI (OVCAR-8 ovarian) was over 100 µM, the GI50 (SF-268 CNS) was 1.98 µM and the TGI (SF-268 CNS) was over 100 µM. The GI50 (SK-OV-3 ovarian) was 6.76 µM, the TGI (SK-OV-3 ovarian) was over 100 µM and the GI50 (U251 CNS) was 0.343 µM. For the same molecule, the TGI (U251 CNS) was 2.33 µM, the GI50 (EKVX NSCLC) was 1.56 µM and the TGI (EKVX NSCLC) was 5.18 µM. The GI50 (MOLT-4 leukemia) was over 100 µM, the TGI (MOLT-4 leukemia) was over 100 µM and the GI50 (DU-145 prostate) was 0.355 µM. The TGI (DU-145 prostate) was 1.41 µM, the GI50 (786-0 renal) was over 23.5 µM and the TGI (786-0 renal) was over 100 µM. For the same molecule, the GI50 (NCI-H23 lung) was 9.81 µM, the TGI (NCI-H23 lung) was over 100 µM and the GI50 (NCI/ADR-RES ovarian) was 0.801 µM. For the same molecule, the TGI (NCI/ADR-RES ovarian) was over 100 µM, the GI50 (SK-MEL-5 melanoma) was over 100 µM and the TGI (SK-MEL-5 melanoma) was over 100 µM. For the same molecule, the GI50 (M14 melanoma) was over 100 µM, the TGI (M14 melanoma) was over 100 µM and the GI50 (SN12C renal) was over 100 µM. For the same molecule, the TGI (SN12C renal) was over 100 µM, the GI50 (SW-620 colon) was 0.445 µM and the TGI (SW-620 colon) was over 82.5 µM. It also gave a GI50 (SNB-19 CNS) of 0.998 µM and a TGI (SNB-19 CNS) of over 100 µM.
